{"source": "patent US7881777B2", "about": "“Method and apparatus for performing intra-operative angiography” (National Research Council of Canada, priority 1999, dated 2011)", "system": "mouse femoral artery", "test": "Mouse femoral vessel diameter by ICG fluorescence angiography under topically applied acetylcholine", "conditions": "mouse femoral artery in vivo", "method": "In this example, a fluorescent dye (ICG) was injected into the vascular bed (via jugular cannulation in the mouse: via an infusion line in the langendorff perfused heart) and excited using radiation from a laser source (806 nm). The fluorescence (radiation) emitted by the dye (830 nm) was captured as a series of angiograms using a CCD camera. The camera relayed the angiograms to analog-to-digital conversion software running on a PC that digitized the angiograms. The digitized images were then analyzed both qualitatively (by viewing the monitor) and quantitatively. One example of quantitative evaluation that was undertaken was the determination of the mouse femoral artery diameter using software comprising a sub-pixel edge detection system running on the PC.\nThe foregoing fluorescence imaging technique was used on the mouse femoral artery in vivo. A more detailed explanation of each component of the apparatus, preparation of the animal, injection of ICG, and analytical method, are set forth in the following paragraphs.\nThe mouse was prepared by inducing anesthesia in an induction box using isoflurane (Ohmeda Pharmaceutical Products, Mississauga, ON, Canada) (4% in medical air, 4 L/min) and maintained by use of a facemask providing isoflurane at a rate of 1.5-2.0% in medical air (400 mL/min). During the experiment, the mouse was positioned on a thermostatted water blanket, with body temperature being monitored by a rectal temperature probe. To facilitate imaging of the vessels of interest, the thoracic, abdominal and inguinal areas of the mouse were shaved, the mouse positioned on its back, and the skin over the femoral vasculature was resected to expose the vasculature of interest. The jugular vein was cannulated using a piece of stretched PE10 tubing filled with saline containing 50 U heparin/mL.\nAfter the mouse was prepared, a 10 μl bolus IV injection of ICG was administered, followed by an IV injection of 50 μl of saline solution. To prepare the bolus, 4 μg/ml of clinical grade ICG (CARDIO-GREEN™) was dissolved in sterile aqueous solvent within one hour of injection. All injections were administered via the cannula established in the jugular vein. The saline was used to flush the line and to ensure passage of an intact bolus through the femoral vasculature, producing a sharp wavefront.\nImage analysis was performed using XCAP for Windows 95/98/NT version 1.0 (EPIX Inc., Buffalo Grove, Ill.). The image processing algorithm included the following steps.\n1. Selection of vessels of interest. The anatomy of the vasculature varies between animals. Consequently, it was necessary to develop criteria for the selection of an area of interest. This process began with the positioning of the camera. The camera was positioned so that the field of view included the femoral artery and its branches. For the purposes of image analysis, the vessels of interest were the femoral artery and the branches that provided the highest resolution and the greatest degree of branching, usually tertiary or quaternary.\n2. Calibration. The positioning of the camera with respect to the area being imaged varied with each animal, and it was therefore necessary to calibrate the camera for every image collected. A small diameter (320 μm) capillary tube (TSP320450; Polymicro Technologies, LLC, Phoenix, Ariz.) filled with ICG was used to calibrate the images. The image processing software includes a built-in calibration function that allows the specification of a set of pixel co-ordinates and the assignment of a user-defined value to the distance between these co-ordinates. The software's edge detector was used to determine the co-ordinates of the edges of the dye fluorescing in the capillary tube. The inner diameter of the capillary tube, in microns, was then assigned to the “length” of the distance between these points. Because this is a built-in feature of the software, all subsequent measurements in all frames of the image were stated in microns, rather than pixel units. […]"}
{"smiles": "CC(=O)OCC[N+](C)(C)C", "note": "[Acetylcholine, acetylcholine]", "values": [{"measurement": "Vessel Diameter (microns)", "setting": "Primary vessel, acetylcholine concentration 0.01 μM", "result": "58.2 ± 1.3", "unit": "microns"}, {"measurement": "Vessel Diameter (microns)", "setting": "Primary vessel, acetylcholine concentration 1.0 μM", "result": "58.3 ± 1.5", "unit": "microns"}, {"measurement": "Vessel Diameter (microns)", "setting": "Primary vessel, acetylcholine concentration 10.0 μM", "result": "64.6 ± 1.5", "unit": "microns"}, {"measurement": "Vessel Diameter (microns)", "setting": "Primary vessel, acetylcholine concentration .01 μM", "result": "61.5 ± 1.7", "unit": "microns"}, {"measurement": "Vessel Diameter (microns)", "setting": "Secondary vessel, acetylcholine concentration 0.01 μM", "result": "67.0 ± 1.3", "unit": "microns"}, {"measurement": "Vessel Diameter (microns)", "setting": "Secondary vessel, acetylcholine concentration 1.0 μM", "result": "90.0 ± 1.8", "unit": "microns"}, {"measurement": "Vessel Diameter (microns)", "setting": "Secondary vessel, acetylcholine concentration 10.0 μM", "result": "75.0 ± 1.4", "unit": "microns"}, {"measurement": "Vessel Diameter (microns)", "setting": "Secondary vessel, acetylcholine concentration .01 μM", "result": "75.1 ± 1.2", "unit": "microns"}, {"measurement": "Vessel Diameter (microns)", "setting": "Tertiary vessel, acetylcholine concentration 0.01 μM", "result": "42.9 ± 0.6", "unit": "microns"}, {"measurement": "Vessel Diameter (microns)", "setting": "Tertiary vessel, acetylcholine concentration 1.0 μM", "result": "47.1 ± 1.2", "unit": "microns"}, {"measurement": "Vessel Diameter (microns)", "setting": "Tertiary vessel, acetylcholine concentration 10.0 μM", "result": "42.9 ± 0.8", "unit": "microns"}, {"measurement": "Vessel Diameter (microns)", "setting": "Tertiary vessel, acetylcholine concentration .01 μM", "result": "44.9 ± 0.6", "unit": "microns"}]}
